Experimental data from patent US11976055B1, “2-(1-(3-(dimethylamino)propyl)-4,5-diphenyl-1H-imidazol-2-yl)pyridin-3-ol as an antitumor and antimicrobial compound” (KING FAISAL UNIVERSITY, priority 2023, dated 2024).

Key:
[1] = tested on: human prostate cancer cells (PC3); assay: Cytotoxicity by SRB assay, PC3 cells; assay type: cell-based; details: androgen-independent metastatic human prostate cancer cells (PC3), 0.01 μM to 100 μM, 72 h
Protocol: (§1) The human prostate cancer cells (PC3) and human osteosarcoma cells (MG-63) were obtained from Nawah Scientific Inc. (Mokatam, Cairo, Egypt) and cultured in DMEM (Dulbecco's modified eagle's medium), Gibco, USA, supplemented with fetal bovine serum (FBS) at a concentration of 10% and 100 U/mL of penicillin and streptomycin (PS). The Cells were incubated at 37° C. in a humidified environment that contained 5% CO2. Cells were seeded in 96-well plates as aliquots of 100 μL cell suspension and incubated in a complete media for 24 h. afterward, cells were treated with 2-(1-(3-(Dimethylamino)propyl)-4,5-diphenyl-1H-imidazol-2-yl)pyridin-3-ol at diverse concentrations ranging from 0.01 μM to 100 μM for 72 h. […] Then, 150 μL of Tris pH 10.5 (10 mM) was added, and the absorbance was measured at 540 nm using a BMG LABTECH®-FLUOstar Omega microplate reader (Ortenberg, Germany). Half maximal inhibitory concentrations (IC50) values were calculated for each experiment using GraphPad Prism 6 software. […] The inhibition was calculated using the following equation: Inhibition %=100−Average Viability The anticancer activity of 2-(1-(3-(Dimethylamino)propyl)-4,5-diphenyl-1H-imidazol-2-yl)pyridin-3-ol was assessed against highly aggressive androgen-independent metastatic human prostate cancer cells (PC3) and osteosarcoma (MG-63) cells.

[2] = tested on: human osteosarcoma cells (MG-63); assay: Cytotoxicity by SRB assay, MG-63 cells; assay type: cell-based; details: osteosarcoma (MG-63) cells, 0.01 μM to 100 μM, 72 h
Protocol: as §1

- melting point: 133 to 135 °C
Structure (SMILES): CN(C)CCCn1c(-c2ncccc2O)nc(-c2ccccc2)c1-c1ccccc1 [2-(1-(3-(Dimethylamino)propyl)-4,5-diphenyl-1H-imidazol-2-yl)pyridin-3-ol]
- antiproliferative activity against PC3 cells [1]: excellent antiproliferative activities
- antiproliferative activity against MG-63 cells [2]: excellent antiproliferative activities
